Source: ChEMBL document CHEMBL1201862, “PubChem BioAssay data set” (2004)
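Assay format: 96-well plates, 48-hour exposure. GI50 is the concentration that inhibits growth by half.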 Activity calls are given as the source filed them. Cut-off read from the data, not from the text of the source: active = GI50 up to about 1.1 µM and inactive = higher.

Columns and labels:
Experiment in all cases: NCI-60 cell line screen, 48 h
SK-MEL-2 = system: SK-MEL-2
OVCAR-5 = system: OVCAR-5
Hs-578T = system: Hs-578T
UACC-257 = system: UACC-257
CCRF-CEM = system: CCRF-CEM
HCT-15 = system: HCT-15
SF-268 = system: SF-268
SK-MEL-5 = system: SK-MEL-5
NCI/ADR-RES = system: NCI/ADR-RES
EKVX = system: EKVX
SK-OV-3 = system: SK-OV-3
HOP-92 = system: HOP-92
UO-31 = system: UO-31
NCI-H23 = system: NCI-H23
MOLT-4 = system: MOLT-4
SNB-75 = system: SNB-75
IGROV-1 = system: IGROV-1
K562 = system: K562
U-251 = system: U-251
NCI-H226 = system: NCI-H226
ACHN = system: ACHN
HL-60 = system: HL-60
BT-549 = system: BT-549
PC-3 = system: PC-3
CAKI-1 = system: CAKI-1
SF-295 = system: SF-295
DU-145 = system: DU-145
SNB-19 = system: SNB-19
COLO 205 = system: COLO 205
MCF7 = system: MCF7
OVCAR-8 = system: OVCAR-8
786-0 = system: 786-0
M14 = system: M14
HT-29 = system: HT-29
RXF 393 = system: RXF 393
HCT-116 = system: HCT-116
MDA-MB-435 = system: MDA-MB-435
SR = system: SR
LOX IMVI = system: LOX IMVI
HOP-62 = system: HOP-62
T47D = system: T47D
MDA-N = system: MDA-N
OVCAR-4 = system: OVCAR-4
TK-10 = system: TK-10
RPMI-8226 = system: RPMI-8226
A498 = system: A498
SW-620 = system: SW-620
SK-MEL-28 = system: SK-MEL-28
KM12 = system: KM12
SN12C = system: SN12C
Malme-3M = system: Malme-3M
OVCAR-3 = system: OVCAR-3
MDA-MB-231 = system: MDA-MB-231
A549 = system: A549
NCI-H522 = system: NCI-H522
SF-539 = system: SF-539
HCC 2998 = system: HCC 2998
NCI-H460 = system: NCI-H460
UACC-62 = system: UACC-62

For Cc1ccc2nc(-c3ccc(-n4c(C)nc(=O)c(-c5ccc(F)cc5)c4C)cc3)sc2c1, the GI50 (SK-MEL-2) was 19.1 µM (inactive), the GI50 (OVCAR-5) was 19.3 µM (inactive) and the GI50 (Hs-578T) was 25.9 µM (inactive). The GI50 (UACC-257) was 16.1 µM (inactive), the GI50 (CCRF-CEM) was 13 µM (inactive) and the GI50 (HCT-15) was 12.4 µM. For the same molecule, the GI50 (SF-268) was 20.3 µM (inactive), the GI50 (SK-MEL-5) was 10.8 µM (inactive) and the GI50 (NCI/ADR-RES) was 15 µM (inactive). The GI50 (EKVX) was 13.5 µM (inactive), the GI50 (SK-OV-3) was 15.1 µM (inactive) and the GI50 (HOP-92) was 17.6 µM (inactive). The GI50 (UO-31) was 15 µM (inactive), the GI50 (NCI-H23) was 16.3 µM (inactive) and the GI50 (MOLT-4) was 7 µM (inactive). For the same molecule, the GI50 (SNB-75) was 13.7 µM (inactive), the GI50 (IGROV-1) was 14.2 µM (inactive) and the GI50 (K562) was 10.8 µM (inactive). For the same molecule, the GI50 (U-251) was 15.5 µM (inactive), the GI50 (NCI-H226) was 17.5 µM (inactive) and the GI50 (ACHN) was 14.6 µM (inactive). For the same molecule, the GI50 (HL-60) was 11.4 µM (inactive), the GI50 (BT-549) was 14.5 µM (inactive) and the GI50 (PC-3) was 12.4 µM (inactive). The GI50 (CAKI-1) was 17.8 µM (inactive), the GI50 (SF-295) was 17.5 µM (inactive) and the GI50 (DU-145) was 15.9 µM (inactive). For the same molecule, the GI50 (SNB-19) was 14.8 µM (inactive), the GI50 (COLO 205) was 4.97 µM (inactive) and the GI50 (MCF7) was 13.3 µM (inactive). The GI50 (OVCAR-8) was 17.5 µM (inactive), the GI50 (786-0) was 13.6 µM (inactive) and the GI50 (M14) was 12.7 µM (inactive). For the same molecule, the GI50 (HT-29) was 13.2 µM (inactive), the GI50 (RXF 393) was 9.75 µM (inactive) and the GI50 (HCT-116) was 11.9 µM (inactive). The GI50 (MDA-MB-435) was 15.1 µM (inactive), the GI50 (SR) was 6.12 µM (inactive) and the GI50 (LOX IMVI) was 22.7 µM (inactive). The GI50 (HOP-62) was 22 µM (inactive), the GI50 (T47D) was 3.3 µM (inactive) and the GI50 (MDA-N) was 14.4 µM (inactive). For the same molecule, the GI50 (OVCAR-4) was 17.6 µM (inactive), the GI50 (TK-10) was 16.1 µM (inactive) and the GI50 (RPMI-8226) was 4.06 µM (inactive). The GI50 (A498) was 18.2 µM (inactive), the GI50 (SW-620) was 21.6 µM (inactive) and the GI50 (SK-MEL-28) was 20.8 µM (inactive). For the same molecule, the GI50 (KM12) was 17.3 µM (inactive), the GI50 (SN12C) was 15 µM (inactive) and the GI50 (Malme-3M) was 14.5 µM (inactive). The GI50 (OVCAR-3) was 13.9 µM (inactive), the GI50 (MDA-MB-231) was 14.1 µM (inactive) and the GI50 (A549) was 14.7 µM (inactive). For the same molecule, the GI50 (NCI-H522) was 15.1 µM (inactive).

COc1cccc(C(=O)Nc2c3ccccc3nc3ccccc23)c1OC was tested, and the GI50 (SK-MEL-2) was > 100 µM (inactive), the GI50 (OVCAR-5) was > 100 µM (inactive) and the GI50 (Hs-578T) was 36.8 µM (inactive). The GI50 (UACC-257) was > 100 µM (inactive), the GI50 (CCRF-CEM) was > 100 µM (inactive) and the GI50 (SF-539) was > 100 µM (inactive). The GI50 (HCT-15) was greater than 100 µM, the GI50 (SF-268) was 74.1 µM (inactive) and the GI50 (SK-MEL-5) was 29.2 µM (inactive). For the same molecule, the GI50 (NCI/ADR-RES) was > 100 µM (inactive), the GI50 (EKVX) was > 100 µM (inactive) and the GI50 (HCC 2998) was > 100 µM (inactive). For the same molecule, the GI50 (SK-OV-3) was 51.9 µM (inactive), the GI50 (UO-31) was 2.96 µM (inactive) and the GI50 (NCI-H23) was > 100 µM (inactive). The GI50 (MOLT-4) was > 100 µM (inactive), the GI50 (SNB-75) was 17.5 µM (inactive) and the GI50 (IGROV-1) was > 100 µM (inactive). For the same molecule, the GI50 (K562) was > 100 µM (inactive), the GI50 (U-251) was > 100 µM (inactive) and the GI50 (NCI-H226) was > 100 µM (inactive). The GI50 (ACHN) was 45.5 µM (inactive), the GI50 (HL-60) was > 100 µM (inactive) and the GI50 (BT-549) was > 100 µM (inactive). For the same molecule, the GI50 (PC-3) was > 100 µM (inactive), the GI50 (CAKI-1) was > 100 µM (inactive) and the GI50 (SF-295) was 39.1 µM (inactive). For the same molecule, the GI50 (DU-145) was > 100 µM (inactive), the GI50 (SNB-19) was 62.2 µM (inactive) and the GI50 (COLO 205) was > 100 µM (inactive). The GI50 (MCF7) was > 100 µM (inactive), the GI50 (OVCAR-8) was 88.9 µM (inactive) and the GI50 (786-0) was 52.2 µM (inactive). The GI50 (M14) was > 100 µM (inactive), the GI50 (HT-29) was > 100 µM (inactive) and the GI50 (RXF 393) was 23.4 µM (inactive). The GI50 (HCT-116) was > 100 µM (inactive), the GI50 (MDA-MB-435) was > 100 µM (inactive) and the GI50 (SR) was > 100 µM (inactive). The GI50 (LOX IMVI) was > 100 µM (inactive), the GI50 (HOP-62) was 45.7 µM (inactive) and the GI50 (T47D) was > 100 µM (inactive). The GI50 (MDA-N) was > 100 µM (inactive), the GI50 (OVCAR-4) was > 100 µM (inactive) and the GI50 (NCI-H460) was 76.2 µM (inactive). For the same molecule, the GI50 (TK-10) was > 100 µM (inactive), the GI50 (RPMI-8226) was > 100 µM (inactive) and the GI50 (SW-620) was > 100 µM (inactive). The GI50 (UACC-62) was > 100 µM (inactive), the GI50 (SK-MEL-28) was > 100 µM (inactive) and the GI50 (KM12) was > 100 µM (inactive). For the same molecule, the GI50 (SN12C) was > 100 µM (inactive), the GI50 (Malme-3M) was > 100 µM (inactive) and the GI50 (OVCAR-3) was > 100 µM (inactive). The GI50 (MDA-MB-231) was > 100 µM (inactive), the GI50 (A549) was 84.9 µM (inactive) and the GI50 (NCI-H522) was 29.2 µM (inactive).

CC(=O)OCc1ccc(O)c(C=O)c1 was tested, and the GI50 (SK-MEL-2) was > 100 µM (inactive), the GI50 (OVCAR-5) was > 100 µM (inactive) and the GI50 (Hs-578T) was > 100 µM (inactive). The GI50 (UACC-257) was > 100 µM (inactive), the GI50 (CCRF-CEM) was 46.3 µM (inactive) and the GI50 (SF-539) was > 100 µM (inactive). The GI50 (HCT-15) was 46.5 µM, the GI50 (SF-268) was 64.9 µM (inactive) and the GI50 (SK-MEL-5) was > 100 µM (inactive). For the same molecule, the GI50 (NCI/ADR-RES) was > 100 µM (inactive), the GI50 (EKVX) was 28.4 µM (inactive) and the GI50 (HCC 2998) was > 100 µM (inactive). For the same molecule, the GI50 (SK-OV-3) was > 100 µM (inactive), the GI50 (HOP-92) was 43.3 µM (inactive) and the GI50 (UO-31) was 56.8 µM (inactive). For the same molecule, the GI50 (NCI-H23) was > 100 µM (inactive), the GI50 (MOLT-4) was 38.3 µM (inactive) and the GI50 (SNB-75) was > 100 µM (inactive). The GI50 (IGROV-1) was > 100 µM (inactive), the GI50 (K562) was 73.6 µM (inactive) and the GI50 (U-251) was 74.8 µM (inactive). For the same molecule, the GI50 (NCI-H226) was > 100 µM (inactive), the GI50 (ACHN) was > 100 µM (inactive) and the GI50 (HL-60) was 39.6 µM (inactive). The GI50 (BT-549) was > 100 µM (inactive), the GI50 (PC-3) was 88.9 µM (inactive) and the GI50 (CAKI-1) was > 100 µM (inactive). For the same molecule, the GI50 (SF-295) was > 100 µM (inactive), the GI50 (DU-145) was > 100 µM (inactive) and the GI50 (SNB-19) was 92.3 µM (inactive). The GI50 (COLO 205) was > 100 µM (inactive), the GI50 (MCF7) was 37.9 µM (inactive) and the GI50 (OVCAR-8) was 96.2 µM (inactive). For the same molecule, the GI50 (786-0) was > 100 µM (inactive), the GI50 (M14) was 25.2 µM (inactive) and the GI50 (HT-29) was > 100 µM (inactive). The GI50 (RXF 393) was > 100 µM (inactive), the GI50 (HCT-116) was 40.4 µM (inactive) and the GI50 (MDA-MB-435) was > 100 µM (inactive). The GI50 (SR) was 60.3 µM (inactive), the GI50 (LOX IMVI) was > 100 µM (inactive) and the GI50 (HOP-62) was > 100 µM (inactive). For the same molecule, the GI50 (T47D) was 51.3 µM (inactive), the GI50 (MDA-N) was 64.6 µM (inactive) and the GI50 (OVCAR-4) was > 100 µM (inactive). The GI50 (NCI-H460) was > 100 µM (inactive), the GI50 (TK-10) was > 100 µM (inactive) and the GI50 (RPMI-8226) was > 100 µM (inactive). For the same molecule, the GI50 (SW-620) was > 100 µM (inactive), the GI50 (UACC-62) was 71.3 µM (inactive) and the GI50 (SK-MEL-28) was > 100 µM (inactive). For the same molecule, the GI50 (KM12) was > 100 µM (inactive), the GI50 (SN12C) was 84.3 µM (inactive) and the GI50 (Malme-3M) was > 100 µM (inactive). For the same molecule, the GI50 (OVCAR-3) was > 100 µM (inactive), the GI50 (MDA-MB-231) was > 100 µM (inactive) and the GI50 (A549) was > 100 µM (inactive). The GI50 (NCI-H522) was > 100 µM (inactive).
